Data as given in US11464770B2, “Anticancer pharmaceutical composition” (NATIONAL CANCER CENTER, priority 2016, dated 2022).
Where two headings read alike, the source gives them in different places.

Experiments:
[1] = system: breast cancer cell lines (e.g. MDA-MB-231, SK-BR-3, MDA-MB-468, HCC1954); experiment: Cell based assay, cell viability (CellTiter-Glo), breast cancer cell lines; settings: 72 hours treatment, CellTiter-Glo cell viability
Procedure, shortened: (§1)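 Seed cells after trypsin-EDTA treatment, hold 24 h at constant temperature, then add compound to a final 0 to 2 μM. Culture 72 h more and measure viability via ATP detection.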

[2] = system: cervical carcinoma cell lines; experiment: Cell based assay, cell viability (CellTiter-Glo), cervical carcinoma cell lines; settings: Homo sapiens; HeLa cells
renal cancer cell lines = experiment: Cell based assay, cell viability (CellTiter-Glo), renal cancer cell lines; settings: Homo sapiens; ACHN cells
Procedure, shortened: as §1

IC50 ([1]; Homo sapiens, BT-20 cells, read-out: IC50, Breast cancer cell line BT-20): > 2000 nM
IC50 ([1]; Homo sapiens, HCC1395 cells, read-out: IC50, Breast cancer cell line HCC1395): > 10000 nM
IC50 ([1]; Homo sapiens, HCC1954 cells, read-out: IC50, Breast cancer cell line HCC1954): > 2000 nM
IC50 ([1]; Homo sapiens, JIMT-1 cells, read-out: IC50, Breast cancer cell line JIMT-1): > 10000 nM
IC50 ([1]; Homo sapiens, MCF7 cells, read-out: IC50, Breast cancer cell line MCF7): > 2000 nM
IC50 ([1]; Homo sapiens, MDA-MB-231 cells, read-out: IC50, Breast cancer cell line MDA-MB-231): > 2000 nM
IC50 ([1]; Homo sapiens, MDA-MB-468 cells, read-out: IC50, Breast cancer cell line MDA-MB-468): > 2000 nM
IC50 ([1]; Homo sapiens, SK-BR-3 cells, read-out: IC50, Breast cancer cell line SK-BR-3): > 2000 nM
IC50 ([1]; MDA-MB-231-L/DOX cells, read-out: IC50, Breast cancer cell line MDA-MB-231-L/DOX): > 2000 nM
IC50 [2]: > 2000 nM
IC50 (renal cancer cell lines): > 2000 nM
Compound: CC(=O)c1c([S+]([O-])Cc2cnc3[nH]ccc3c2)[nH]c2c(Br)ccc(Cl)c2c1=O (centres unmarked) [Compound 107, 2-(((1H-pyrrolo[2,3-b]pyridin-5-yl)methyl)sulfinyl)-3-acetyl-8-bromo-5-chloroquinolin-4(1H)-one]
